Test results taken from PMC12107103, “MTA-cooperative PRMT5 inhibitors from cofactor-directed DNA-encoded library screens” (Proceedings of the National Academy of Sciences of the …, 2025).
Blank lines part the entries; values can stand above or below the compound they belong to.

Assays:
[1] = test system: 24-cell line panel of MTAP WT and MTAP-deleted cell lines; experiment: Cell viability across 24-cell line panel; type: cell-based; conditions: MTAP WT vs MTAP-deleted
Protocol: (§1) Parental (HD PAR-034) and MTAP^−^/^− (HD R02-033) colorectal cancer HCT116 cell lines were obtained from Horizon Discovery and maintained in RPMI1640 supplemented with 10% fetal bovine serum and antibiotics or in McCoy 5A supplemented with 10% fetal bovine serum (for mouse experiments). Other cell lines were obtained from ATCC and maintained according to instructions. Effects of compounds on cell viability were assessed using the CellTiter-Glo Kit from Promega (G7571) after 6 d of compound incubation and quantified using an EnVision® 2105 multimode plate reader (PerkinElmer) in luminescence mode.

PRMT5:MEP50 complex = target: T1, PRMT5:MEP50 complex (Homo sapiens, UniProt O14744); experiment: Thermal Stability Assay (TSA), thermal shift; type: binding; conditions: for stabilization of the complex by cofactor alone: cofactor added to apo complex (10 µM SIN, 10 µM SAM, or 5 µM MTA)
T1 construct: FLAG (N); purchased Reaction Biology Corp HMT-2-148; host or cells: insect cells (baculovirus)
Protocol: 0.1 µM PRMT5:MEP50 complex was incubated with compounds in a buffer consisting of 50 mM Tris-HCl pH 8.0, 50 mM NaCl, 1 mM TCEP, and 4xSypro Orange (Thermo Fisher, S-6650) in the absence or presence of cofactor (10 µM SIN, 10 µM SAM, or 5 µM MTA) and read on a StepOne™ Real-Time PCR machine (Applied Biosystems™) using a temperature ramp of 0.5 °C/min over a range of 25 to 95 °C.

[2] = test system: MTAP-deleted HCT116 cells; experiment: SDMA high-content imaging assay, MTAP-deleted cells; type: cell-based; conditions: Homo sapiens, HCT-116, 72 h, read-out: IC50, reduction of cellular SDMA
Protocol: (§2) Cells were seeded into 96-well plates and incubated with compound for 3 d before fixing with 4% PFA (in 1× PBS) for 15 min. Cells were then washed once with Wash Buffer (1× PBS + 1% BSA + 0.2% Triton X-100), 100 µL/well for 15 min before blocking for 1 h Using Licor Odyssey blocking reagent ([…]) (100 µL/well). After three washes in Wash Buffer, cells were then stained for 2 h with anti-SDMA antibody (1:2,000 in Wash Buffer), washed three times in Wash Buffer, stained for 1 h in the dark using anti-rabbit Alexa-488 (1:2,000 in Wash Buffer) and Hoechst 33342 (1:5,000), followed by three washes in Wash Buffer before quantifying on a Cellomics Array Scan image system.

[3] = test system: Parental HCT116 cells (MTAP WT); experiment: Cell viability (CellTiter-Glo), parental cells; type: cell-based; conditions: Homo sapiens, read-out: IC50, cell viability
Protocol: as §1

[4] = test system: arginine-, lysine-, and DNA-methyltransferases; experiment: Methyltransferase panel profiling (BPS Bioscience): other methyltransferases; conditions: tested up to 10 µM
[5] = test system: MTAP-deleted HCT116 cells; experiment: Cell viability (CellTiter-Glo), MTAP-deleted cells; type: cell-based; conditions: Homo sapiens, read-out: IC50, cell viability
Protocol: as §1

in vitro = conditions: human, primary bone marrow-derived megakaryocytes
HCT116 MTAP WT tumors = experiment: Contralateral tumor model, tumor SDMA ELISA, WT tumors; type: in vivo, mouse; conditions: parental (MTAP WT) tumors, daily for 4 d
Protocol: (§3) Mice were implanted contralaterally on their flanks with parental and MTAP-deleted HCT116 cells such that each mouse would carry one WT and one MTAP-deleted tumor (Fig. 4A). This design eliminates variance in compound exposures between groups and allows direct assessment of MTAP status impact on compound effects. […] Four hours post the fourth dose, tumors were analyzed for SDMA content by ELISA. […] This confirms the MTA-selective action of AM-9934 in the tumor setting.
(§4) HCT116 colon carcinoma WT and MTAP^−^/^− isogenic cells were determined to be free of contamination with mycoplasma as well as a panel of murine viral pathogens in addition to being authenticated. Mice were inoculated s.c. with 2 × 10^6 HCT116 WT cells on the left flank and 2 × 10^6 HCT116 MTAP^−^/^− cells on the right flank in 33% Matrigel. Mice were enrolled once both tumors reached 250 to 500 mm^3 and randomized into vehicle vs. PRMT5i treated groups (N = 3). Vehicle or PRMT5i treatment started on day 14 postimplantation orally and treated once daily for 4 d. […]
(§5) Preparation of protein lysates from snap-frozen tumors was carried out as follows: samples were collected in a Covaris Tissue Tube (520001 TT1) to be used in conjunction with the CryoPrep. […] The protein concentration of each lysate was then determined using a BCA assay. […]

[6] = Blood/tumor compound concentrations in contralateral tumor model; type: in vivo, mouse; conditions: 4 h post last dose, 50-200 mg/kg
Protocol: HCT116 colon carcinoma WT and MTAP^−^/^− isogenic cells were determined to be free of contamination with mycoplasma as well as a panel of murine viral pathogens in addition to being authenticated. Mice were inoculated s.c. with 2 × 10^6 HCT116 WT cells on the left flank and 2 × 10^6 HCT116 MTAP^−^/^− cells on the right flank in 33% Matrigel. Mice were enrolled once both tumors reached 250 to 500 mm^3 and randomized into vehicle vs. PRMT5i treated groups (N = 3). Vehicle or PRMT5i treatment started on day 14 postimplantation orally and treated once daily for 4 d. Blood was collected at 4 h post–last dose (day 17 postimplantation) for pharmacokinetic analysis in Microtainer tubes containing lithium heparin. Blood was centrifuged at 7,000 rpm at 4 °C for 7 min. Tumors from both sides were also collected and snap-frozen for pharmacokinetic analysis and SDMA ELISA. Plasma and tumors were collected and stored at −80 °C until analysis.

[7] = test system: Parental HCT116 cells (MTAP WT); experiment: SDMA high-content imaging assay, parental cells; type: cell-based; conditions: Homo sapiens, HCT-116, 72 h, read-out: IC50, reduction of cellular SDMA
Protocol: as §2

HCT116 MTAP Null tumors = experiment: Contralateral tumor model, tumor SDMA ELISA, MTAP-deleted tumors; type: in vivo, mouse; conditions: daily for 4 d
Protocol: as §3, §4, §5

MTAP null tumors = test system: MTAP null tumors; set-up: method as in PMID 39282709; conditions: patients with MTAP null tumors; cited from earlier work

T1 sequence (O14744 2-637 limits assumed): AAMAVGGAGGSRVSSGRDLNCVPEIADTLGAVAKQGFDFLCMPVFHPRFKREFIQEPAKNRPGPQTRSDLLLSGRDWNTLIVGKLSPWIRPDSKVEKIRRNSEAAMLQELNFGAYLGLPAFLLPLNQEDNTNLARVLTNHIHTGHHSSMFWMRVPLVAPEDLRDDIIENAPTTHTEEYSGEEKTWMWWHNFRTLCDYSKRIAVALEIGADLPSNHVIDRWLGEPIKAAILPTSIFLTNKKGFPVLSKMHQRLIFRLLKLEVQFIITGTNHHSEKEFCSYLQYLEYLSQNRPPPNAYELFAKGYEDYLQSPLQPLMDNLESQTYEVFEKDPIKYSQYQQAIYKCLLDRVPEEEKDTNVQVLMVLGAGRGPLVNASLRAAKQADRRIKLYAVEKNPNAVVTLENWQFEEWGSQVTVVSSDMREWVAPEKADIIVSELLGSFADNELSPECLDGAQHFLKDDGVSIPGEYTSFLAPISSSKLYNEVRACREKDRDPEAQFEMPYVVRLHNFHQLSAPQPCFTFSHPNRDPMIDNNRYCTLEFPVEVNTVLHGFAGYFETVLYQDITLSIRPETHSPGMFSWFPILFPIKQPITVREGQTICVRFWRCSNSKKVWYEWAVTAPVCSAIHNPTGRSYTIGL
T1 sequence (Q9BQA1 2-342 partner limits assumed): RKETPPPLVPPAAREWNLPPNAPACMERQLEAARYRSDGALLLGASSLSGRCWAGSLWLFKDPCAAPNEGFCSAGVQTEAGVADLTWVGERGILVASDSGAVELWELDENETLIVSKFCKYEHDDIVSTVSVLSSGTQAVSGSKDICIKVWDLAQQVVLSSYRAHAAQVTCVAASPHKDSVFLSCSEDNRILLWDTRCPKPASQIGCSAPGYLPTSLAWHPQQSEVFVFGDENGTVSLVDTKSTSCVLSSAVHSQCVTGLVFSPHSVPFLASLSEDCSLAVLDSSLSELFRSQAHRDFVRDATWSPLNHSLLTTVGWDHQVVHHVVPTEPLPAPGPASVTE

SMILES: Cc1cc2cc(C(=O)N(Cc3ccc(C(F)(F)F)cn3)CC(C)C)ccc2nc1N [AM-9934]
discrimination of viability potency by MTAP status [1]: significantly higher potency toward MTAP-deleted cell lines | stabilization in the presence of MTA (PRMT5:MEP50 complex; MTA-bound complex, compound 0.1 µM): 9.3 K | IC50 [2]: 9.2 nM | IC50 ([3]; HCT-116, […]): 4100 nM | inhibitory activity toward the other tested methyltransferases [4]: No significant inhibitory activity | IC50 ([5]; HCT-116, […]): 160 nM | IC50 (in vitro): 3100 nM | suppression of tumor SDMA levels (in words) (HCT116 MTAP WT tumors): insignificant at lower doses | exposures (blood/tumor compound concentrations) [6]: exposures increased with dose | IC50 [7]: 143 nM | suppression of tumor SDMA levels (in words) (HCT116 MTAP Null tumors): all three doses reached significant levels of SDMA suppression

SMILES: Nc1nc2cnc(C(=O)N3CCOC[C@@H]3c3ccc(C(F)(F)F)cc3)cc2c2c1COC2 [AMG 193]
antitumor responses in patients (MTAP null tumors): initial antitumor responses

stabilization of the MTA-bound complex (PRMT5:MEP50 complex; MTA-bound complex, compound 10 µM): no stabilization | stabilization of the SAM-bound complex (PRMT5:MEP50 complex; SAM-bound complex, compound 10 µM): showed an interaction | stabilization of the SIN-bound complex (PRMT5:MEP50 complex; SIN-bound complex, compound 10 µM): showed an interaction | IC50 ([2]; MTAP-deleted HCT116, 3 d incubation): 4.3 nM | IC50 ([5]; HCT-116, MTAP-deleted HCT116, 6 d incubation): 600 nM | IC50 (in vitro): 360 nM
SMILES: O=C(NC[C@H](O)CN1CCc2ccccc2C1)c1cc(NC2COC2)ncn1 [EPZ015666]
discrimination of viability potency by MTAP status [1]: did not significantly discriminate | IC50 ([3]; HCT-116, parental HCT116, 6 d incubation): 890 nM | IC50 ([7]; parental HCT116, 3 d incubation): 9.6 nM

SMILES: CC(=O)N1CCC(Nc2cc(C(=O)NC[C@H](O)CN3CCc4ccccc4C3)ncn2)CC1 [GSK3326595]
suppression of tumor SDMA levels (in words) (HCT116 MTAP WT tumors): marked suppression | suppression of tumor SDMA levels (in words) (HCT116 MTAP Null tumors): marked suppression

stabilization of the complex by cofactor alone (PRMT5:MEP50 complex): < 0.5 K
SMILES: CSC[C@H]1O[C@@H](n2cnc3c(N)ncnc32)[C@H](O)[C@@H]1O [MTA, methylthioadenosine]

SMILES: C[S+](CC[C@H](N)C(=O)[O-])C[C@H]1O[C@@H](n2cnc3c(N)ncnc32)[C@H](O)[C@@H]1O (some centres unmarked) [SAM, S-Adenosyl methionine]
stabilization of the complex by cofactor alone (PRMT5:MEP50 complex): < 0.5 K

stabilization of the complex by cofactor alone (PRMT5:MEP50 complex): < 0.5 K
SMILES: Nc1ncnc2c1ncn2[C@@H]1O[C@H](C[C@@H](N)CC[C@H](N)C(=O)O)[C@@H](O)[C@H]1O [SIN, sinefungin]
